# Measured values: patent publication US8778958B2, “Synthesis of metabolically stable agents for alcohol and drug abuse” (priority 2008, dated 2014)
# Experiments:
# [1] = target: T1, μ-opioid receptor (Mus musculus, UniProt P42866); assay: biochemical; design: species or system human; settings: percentage of basal [35S]GTPγS binding stimulation
# T1 construct: FLAG; expressed in transfected cells
# [2] = target: T2, δ-opioid receptor (Mus musculus, UniProt P32300); assay: biochemical; design: species or system human; settings: percentage of basal [35S]GTPγS binding stimulation
# T2 construct: hemagglutinin (HA); expressed in transfected cells
# T2 sequence (P32300 whole entry): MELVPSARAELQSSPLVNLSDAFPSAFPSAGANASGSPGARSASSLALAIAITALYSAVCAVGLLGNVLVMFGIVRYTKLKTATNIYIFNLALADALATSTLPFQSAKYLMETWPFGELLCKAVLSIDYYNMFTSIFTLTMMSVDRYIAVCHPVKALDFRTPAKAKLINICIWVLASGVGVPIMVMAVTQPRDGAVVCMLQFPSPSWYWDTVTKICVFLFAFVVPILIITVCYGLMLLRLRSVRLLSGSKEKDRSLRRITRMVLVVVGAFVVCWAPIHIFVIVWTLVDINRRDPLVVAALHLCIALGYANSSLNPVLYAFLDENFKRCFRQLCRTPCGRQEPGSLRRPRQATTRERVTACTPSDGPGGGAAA
# [3] = target: T3, κ-opioid receptor (Mus musculus, UniProt P33534); assay: biochemical; design: species or system human; settings: percentage of basal [35S]GTPγS binding stimulation
# T3 construct: FLAG; expressed in transfected cells
# T3 sequence (P33534 whole entry): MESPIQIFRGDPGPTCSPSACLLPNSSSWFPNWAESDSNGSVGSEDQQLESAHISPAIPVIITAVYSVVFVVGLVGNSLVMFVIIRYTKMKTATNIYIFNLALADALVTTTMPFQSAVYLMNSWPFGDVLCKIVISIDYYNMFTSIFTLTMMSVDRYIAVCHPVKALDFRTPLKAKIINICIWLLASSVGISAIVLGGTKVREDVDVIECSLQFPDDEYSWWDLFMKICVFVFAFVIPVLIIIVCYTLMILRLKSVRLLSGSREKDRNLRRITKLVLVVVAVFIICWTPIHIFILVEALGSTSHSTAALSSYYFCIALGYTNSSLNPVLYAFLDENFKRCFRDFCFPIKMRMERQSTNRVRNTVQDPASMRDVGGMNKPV
# [4] = target: T1, μ-opioid receptor; assay: biochemical; type: biochemical, human
# [5] = target: T2, δ-opioid receptor; assay: biochemical; type: biochemical, human
# [6] = target: T3, κ-opioid receptor; assay: biochemical; type: biochemical, human
# [7] = target: T4, NOP (nociceptin) receptor (Homo sapiens, UniProt P41146)
# T4 sequence (P41146 whole entry): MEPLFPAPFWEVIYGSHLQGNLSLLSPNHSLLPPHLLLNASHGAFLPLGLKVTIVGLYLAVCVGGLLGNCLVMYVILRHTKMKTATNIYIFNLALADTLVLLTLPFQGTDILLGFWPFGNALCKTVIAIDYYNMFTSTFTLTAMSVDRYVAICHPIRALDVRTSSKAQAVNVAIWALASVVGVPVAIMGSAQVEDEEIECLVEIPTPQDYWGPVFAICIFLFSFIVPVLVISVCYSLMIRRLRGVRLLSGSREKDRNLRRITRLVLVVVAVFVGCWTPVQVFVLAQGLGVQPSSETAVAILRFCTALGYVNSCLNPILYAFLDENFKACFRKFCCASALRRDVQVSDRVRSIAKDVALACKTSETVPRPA
# [8] = target: T4, NOP (nociceptin) receptor; assay: Inhibition of basal [35S]GTPγS binding (inverse agonism), NOP; type: biochemical; design: FLAG; expressed in transfected cells
# [9] = target: T5, CYP2B6 (Homo sapiens, UniProt P20813); assay: CYP inhibition, CYP2B6 (Vivid Blue substrate); settings: 10 μM test compound; ND = no detectable inhibition
# T5 sequence (P20813 1-491): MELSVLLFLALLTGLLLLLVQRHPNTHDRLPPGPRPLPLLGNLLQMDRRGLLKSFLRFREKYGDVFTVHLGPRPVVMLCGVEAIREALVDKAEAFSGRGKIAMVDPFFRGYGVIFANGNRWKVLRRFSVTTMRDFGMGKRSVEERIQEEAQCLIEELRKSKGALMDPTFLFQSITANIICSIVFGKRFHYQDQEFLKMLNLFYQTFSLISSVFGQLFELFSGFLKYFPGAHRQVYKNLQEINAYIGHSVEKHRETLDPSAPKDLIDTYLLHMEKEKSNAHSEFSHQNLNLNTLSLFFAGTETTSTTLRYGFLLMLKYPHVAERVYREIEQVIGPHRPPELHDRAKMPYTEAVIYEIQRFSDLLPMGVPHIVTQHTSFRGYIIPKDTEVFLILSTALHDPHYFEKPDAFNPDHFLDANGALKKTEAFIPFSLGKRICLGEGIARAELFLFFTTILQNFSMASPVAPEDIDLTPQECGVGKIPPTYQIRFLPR
# [10] = target: CYP2D6 (Homo sapiens, UniProt P10635); assay: CYP inhibition, CYP2D6 (Vivid Blue substrate); settings: 10 μM test compound; ND = no detectable inhibition
# Chain of CYP2D6 (P10635 whole entry): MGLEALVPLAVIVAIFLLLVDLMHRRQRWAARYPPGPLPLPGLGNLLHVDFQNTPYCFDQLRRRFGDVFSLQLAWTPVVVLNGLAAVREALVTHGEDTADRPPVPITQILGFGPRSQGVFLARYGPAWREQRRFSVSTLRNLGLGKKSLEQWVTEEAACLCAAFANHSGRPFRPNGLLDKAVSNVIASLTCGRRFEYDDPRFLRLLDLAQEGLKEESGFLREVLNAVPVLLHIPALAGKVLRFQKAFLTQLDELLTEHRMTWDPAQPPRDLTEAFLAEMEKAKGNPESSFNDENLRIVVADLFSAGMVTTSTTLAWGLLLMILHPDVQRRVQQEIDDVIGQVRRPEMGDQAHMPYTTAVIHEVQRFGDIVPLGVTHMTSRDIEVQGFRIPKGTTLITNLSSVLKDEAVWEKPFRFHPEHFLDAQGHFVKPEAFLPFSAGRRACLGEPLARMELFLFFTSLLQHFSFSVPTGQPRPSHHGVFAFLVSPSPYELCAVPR
# [11] = target: CYP2C19 (Homo sapiens, UniProt P33261); assay: CYP inhibition, CYP2C19 (Vivid Blue substrate); settings: 10 μM test compound; ND = no detectable inhibition
# Chain of CYP2C19 (P33261 whole entry): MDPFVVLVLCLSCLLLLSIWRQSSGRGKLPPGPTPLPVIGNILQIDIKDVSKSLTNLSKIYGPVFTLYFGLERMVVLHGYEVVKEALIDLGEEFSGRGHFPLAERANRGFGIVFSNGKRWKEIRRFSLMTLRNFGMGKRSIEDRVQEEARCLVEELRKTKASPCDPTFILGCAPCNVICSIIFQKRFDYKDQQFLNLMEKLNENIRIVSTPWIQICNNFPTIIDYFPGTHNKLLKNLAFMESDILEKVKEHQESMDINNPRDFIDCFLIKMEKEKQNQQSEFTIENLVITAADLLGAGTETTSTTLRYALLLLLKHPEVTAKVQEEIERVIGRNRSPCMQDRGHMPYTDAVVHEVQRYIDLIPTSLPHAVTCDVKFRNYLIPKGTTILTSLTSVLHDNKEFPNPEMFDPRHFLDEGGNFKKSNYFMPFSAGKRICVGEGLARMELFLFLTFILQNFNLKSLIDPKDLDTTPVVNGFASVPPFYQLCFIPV
# [12] = target: CYP2C9 (Homo sapiens, UniProt P11712); assay: CYP inhibition, CYP2C9 (diclofenac hydroxylase); settings: 10 μM test compound; ND = no detectable inhibition
# Chain of CYP2C9 (P11712 whole entry): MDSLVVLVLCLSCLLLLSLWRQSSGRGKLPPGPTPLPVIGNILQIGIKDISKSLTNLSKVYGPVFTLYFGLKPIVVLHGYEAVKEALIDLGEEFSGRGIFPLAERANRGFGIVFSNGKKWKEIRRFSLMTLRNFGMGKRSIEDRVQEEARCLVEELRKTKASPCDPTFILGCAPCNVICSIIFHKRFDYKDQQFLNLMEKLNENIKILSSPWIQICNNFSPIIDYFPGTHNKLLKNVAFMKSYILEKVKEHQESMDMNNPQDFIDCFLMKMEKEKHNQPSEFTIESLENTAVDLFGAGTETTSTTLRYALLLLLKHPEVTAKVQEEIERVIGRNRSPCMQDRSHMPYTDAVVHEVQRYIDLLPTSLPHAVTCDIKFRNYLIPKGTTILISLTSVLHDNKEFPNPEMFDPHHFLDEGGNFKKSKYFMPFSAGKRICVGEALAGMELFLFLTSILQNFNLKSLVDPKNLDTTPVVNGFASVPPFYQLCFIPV
# [13] = target: CYP3A4 (Homo sapiens, UniProt P08684); assay: CYP inhibition, CYP3A4 (testosterone 6-hydroxylation); settings: 10 μM test compound; ND = no detectable inhibition
# Chain of CYP3A4 (P08684 whole entry): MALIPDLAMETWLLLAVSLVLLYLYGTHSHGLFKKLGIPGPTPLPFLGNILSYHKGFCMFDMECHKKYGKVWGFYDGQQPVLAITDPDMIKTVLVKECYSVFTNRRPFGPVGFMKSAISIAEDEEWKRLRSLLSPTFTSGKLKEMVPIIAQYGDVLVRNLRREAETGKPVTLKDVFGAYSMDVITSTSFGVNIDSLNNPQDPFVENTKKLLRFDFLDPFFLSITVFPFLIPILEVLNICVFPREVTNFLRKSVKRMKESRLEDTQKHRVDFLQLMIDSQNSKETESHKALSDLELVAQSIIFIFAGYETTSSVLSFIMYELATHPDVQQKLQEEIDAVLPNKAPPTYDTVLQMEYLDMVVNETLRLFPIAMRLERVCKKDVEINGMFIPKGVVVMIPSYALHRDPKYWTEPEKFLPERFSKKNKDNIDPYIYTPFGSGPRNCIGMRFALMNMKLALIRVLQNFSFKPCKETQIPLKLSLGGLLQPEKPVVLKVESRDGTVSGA
# [14] = target: T4, NOP (nociceptin) receptor; assay: Stimulation of [35S]GTPγS binding (agonist activity), NOP; settings: read-out: EC50, NOP, stimulation of [35S]GTPγS binding; cells printed in μM
# T1 sequence (P42866 whole entry): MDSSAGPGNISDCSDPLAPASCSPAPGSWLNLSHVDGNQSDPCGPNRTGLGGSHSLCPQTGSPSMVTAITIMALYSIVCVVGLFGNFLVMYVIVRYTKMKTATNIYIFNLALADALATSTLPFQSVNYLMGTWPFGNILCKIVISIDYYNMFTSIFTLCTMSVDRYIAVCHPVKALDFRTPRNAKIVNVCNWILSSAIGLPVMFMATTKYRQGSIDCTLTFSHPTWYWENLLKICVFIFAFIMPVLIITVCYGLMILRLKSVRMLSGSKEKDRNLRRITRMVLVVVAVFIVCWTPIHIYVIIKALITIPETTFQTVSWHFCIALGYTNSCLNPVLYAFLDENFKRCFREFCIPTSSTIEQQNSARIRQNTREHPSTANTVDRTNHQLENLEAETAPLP
smiles,measurement,setting,value
"O=C(N[C@@H]1CC[C@@]2(O)[C@H]3Cc4ccc(O)c5c4[C@@]2(CCN3CC2CC2)[C@H]1O5)c1ccc(Cl)c(Cl)c1 [Compound 9, 6-β-(3′,4′-Dichloro)benzamido-14-hydroxy-17-(cyclopropylmethyl)nordesmorphine]","Emax, μ, stimulation of [35S]GTPγS binding",[1],85 ± 7.4%
same,"Emax, δ, stimulation of [35S]GTPγS binding",[2],85 ± 35%
same,"Emax, κ, stimulation of [35S]GTPγS binding",[3],80 ± 7.4%
same,"Emax, μ, inhibition of basal [35S]GTPγS binding",[4],0%
same,"Emax, δ, inhibition of basal [35S]GTPγS binding",[5],0%
same,"Emax, κ, inhibition of basal [35S]GTPγS binding",[6],0%
same,Emax,[7],0%
same,EC50,[8],0.1 nM
same,"Emax, NOP, inhibition of basal [35S]GTPγS binding",[8],87 ± 6.9%
same,Percent Inhibition CYP2B6,[9],5%
same,Percent Inhibition CYP2D6,[10],10%
same,Percent Inhibition CYP2C19,[11],39%
same,Percent Inhibition CYP2C9,[12],7%
same,Percent Inhibition CYP3A4,[13],11%
same,EC50,[14],> 10 µM
